Measurements from PubChem BioAssay AID2060513 (Molecular Pharmacology Branch, DTP, NCI, 2025).
pIC50: −log10 of the molar value.

Tested on: 299254-011-R-J1-PDC complex spheroids viability
Experiment: Anticancer human tumor 299254-011-R-J1-PDC patient-derived melanoma cell line growth inhibition [GQUAD]
Conditions: for pIC50: curve of first compound; for viability, T/C: stronger effect = lower value
Text: DNA G-quadruplex Stabilizer Agents in Combinations in Complex Spheroids
A high-throughput screen of multi-cell type tumor spheroids was designed to identify active combinations of DNA G-quadruplex stabilizer agents and targeted small molecules. Complex spheroids include a stromal component modeled by human endothelial cells (HUVEC) and fibroblasts modeled by human mesenchymal stem cells (MSCs). The concentration ranges selected for each drug and investigational agent were based upon clinically achievable concentrations if the clinical Cmax of the agent was known.
Compounds. The drugs and investigational agents: pidnarulex (CX-5461; NSC782164), APTO-253 (NSC789042), BRACO-19 (NSC847499), peposertib (NSC802822), ceralasertib (NSC780249), elimusertib (NSC800525), camonsertib (NSC841442), AZD-1390 (NSC803789), olaparib (NSC753686), talazoparib (NSC767125), ART-558 (NSC835418), sotorasib (NSC818433), MRTX-1133 (NSC836407), SN-38 (NSC673596), topotecan (NSC609699), etoposide (NSC141540), doxorubicin (NSC123127), gemcitabine (NSC613327), 5-fluorouracil (NSC19893), paclitaxel (NSC125973), vemurafenib (NSC761431), panobinostat (NSC761190), R-306465 (JNJ-16241199; NSC773264), adavosertib (NSC754352), TP-3654 (NSC805149), carboplatin (NSC241240), KSQ-4279 (NSC840948), and staurosporine (NSC755774) were obtained from the National Cancer Institute (NCI) Developmental Therapeutics Program Chemical Repository (34). The FDA-approved anticancer drug set is available from the NCI Developmental Therapeutics Program. […] The stock solutions were prepared in dimethyl sulfoxide (DMSO, Sigma-Aldrich, St. Louis, MO, cat. D2650) at 800-fold the tested concentration and stored at -70 degrees C prior to their use. All drugs and investigational agents were tested over a range starting from a high concentration at or near the clinical Cmax and decreasing in half-log increments. If the clinical Cmax for an agent had not been determined, the highest concentration tested was 10 microM.
2.3 Cell Culture. All cells were maintained in an incubator at 37 degrees C and 5% CO2 with 95% humidity. The PDC lines were cultured according to standard operating procedures established by the NCI PDMR. All PDCs were thawed and cultured in Matrigel-coated flasks prepared with a working solution of 1X Ham's F-12 nutrient mix, without supplementation (Invitrogen, cat. 11765054), 100 U/mL penicillin-streptomycin (Invitrogen, cat. 15140122), and 2.5% Matrigel (Corning Inc., cat. 354248) for the first three passages. The 857933-349-R-J2-PDC line was cultured in 6C/Colon 1B media, which includes advanced DMEM/F-12 (Thermo Fisher Scientific, cat. 12634028), 10 mM HEPES (Thermo Fisher Scientific, cat. 15630080), 1X GlutaMAX supplement (Thermo Fisher Scientific, cat. 35050061), 0.1 mg/mL primocin (InvivoGen, cat. ant-pm-2), 10% defined fetal bovine serum, heat inactivated (HyClone Laboratories Inc., cat. SH30070.03HI), 50% L-WRN conditioned media (ATCC, cat. CRL-3276), 1.25 mM N-Acetyl-L-cysteine (Sigma-Aldrich, cat. A9165), 10 mM nicotinamide (Sigma-Aldrich, cat. N0636), 1X B-27 supplement (Thermo Fisher Scientific, cat. 17504044), 1X N-2 supplement (Thermo Fisher Scientific, cat. 17502048), 10 microM Y-27632 dihydrochloride (Tocris Bioscience, cat. 1254), and 50 ng/mL human EGF recombinant protein (Thermo Fisher Scientific, cat. PHG0311). The 485176-168-R4-J1-PDC line was cultured in Panc media, which includes all 6C/Colon 1B media components plus 100 ng/mL human FGF-10 (Thermo Fisher Scientific, cat. 100-26), 500 nM SB-431542 (Selleckchem, cat. S1067), and gastrin (Tocris, cat. 3006).
[…]

[1] = second compound 0.0316 µM, first compound 0.0316 µM
[2] = second compound 0.0316 µM, first compound 0.1 µM
[3] = second compound 0.0316 µM, first compound 0.316 µM
[4] = second compound 0.0316 µM, first compound 1 µM
[5] = second compound 0.0316 µM, first compound 3.16 µM
[6] = second compound 0.0316 µM, first compound 10 µM
[7] = second compound 0.1 µM, first compound 0.0316 µM
[8] = second compound 0.1 µM, first compound 0.1 µM
[9] = second compound 0.1 µM, first compound 0.316 µM
[10] = second compound 0.1 µM, first compound 1 µM
[11] = second compound 0.1 µM, first compound 3.16 µM
[12] = second compound 0.1 µM, first compound 10 µM
[13] = second compound 0.316 µM, first compound 0.0316 µM
[14] = second compound 0.316 µM, first compound 0.1 µM
[15] = second compound 0.316 µM, first compound 0.316 µM
[16] = second compound 0.316 µM, first compound 1 µM
[17] = second compound 0.316 µM, first compound 3.16 µM
[18] = second compound 0.316 µM, first compound 10 µM
[19] = second compound 1 µM, first compound 0.0316 µM
[20] = second compound 1 µM, first compound 0.1 µM
[21] = second compound 1 µM, first compound 0.316 µM
[22] = second compound 1 µM, first compound 1 µM
[23] = second compound 1 µM, first compound 3.16 µM
[24] = second compound 1 µM, first compound 10 µM
[25] = second compound 3.16 µM, first compound 0.0316 µM
[26] = second compound 3.16 µM, first compound 0.1 µM
[27] = second compound 3.16 µM, first compound 0.316 µM
[28] = second compound 3.16 µM, first compound 1 µM
[29] = second compound 3.16 µM, first compound 3.16 µM
[30] = second compound 3.16 µM, first compound 10 µM
[31] = second compound 10 µM, first compound 0.0316 µM
[32] = second compound 10 µM, first compound 0.1 µM
[33] = second compound 10 µM, first compound 0.316 µM
[34] = second compound 10 µM, first compound 1 µM
[35] = second compound 10 µM, first compound 3.16 µM
[36] = second compound 10 µM, first compound 10 µM
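Further: spheroids exposed to the agents for seven days before readout.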
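Wherever viability, T/C is given: percent viability relative to DMSO vehicle control wells = 100%.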

CC(=O)O[C@H]1C(=O)[C@@]2(C)[C@H]([C@H](OC(=O)c3ccccc3)[C@]3(O)C[C@H](OC(=O)[C@H](O)[C@@H](NC(=O)c4ccccc4)c4ccccc4)C(C)=C1C3(C)C)[C@]1(OC(C)=O)CO[C@@H]1C[C@@H]2O + Cc1[nH]c2ccc(F)cc2c1-c1nc2c3cccnc3c3ncccc3c2[nH]1
pIC50 (second compound 0.0316 µM): 6.35
pIC50 (second compound 0.1 µM): 6.56
pIC50 (second compound 0.316 µM): 6.35
pIC50 (second compound 1 µM): 6.30
pIC50 (second compound 3.16 µM): 6.27
pIC50 (second compound 10 µM): 6.39
viability, T/C [1]: 90.7%
viability, T/C [2]: 82%
viability, T/C [3]: 58.2%
viability, T/C [4]: 31.2%
viability, T/C [5]: 18%
viability, T/C [6]: 15.5%
viability, T/C [7]: 86.8%
viability, T/C [8]: 94.6%
viability, T/C [9]: 44.2%
viability, T/C [10]: 35.9%
viability, T/C [11]: 20.7%
viability, T/C [12]: 13.9%
viability, T/C [13]: 104%
viability, T/C [14]: 86.1%
viability, T/C [15]: 57.2%
viability, T/C [16]: 33.4%
viability, T/C [17]: 19.2%
viability, T/C [18]: 17.3%
viability, T/C [19]: 89.6%
viability, T/C [20]: 92.6%
viability, T/C [21]: 50.1%
viability, T/C [22]: 43.1%
viability, T/C [23]: 21.2%
viability, T/C [24]: 17.4%
viability, T/C [25]: 83.3%
viability, T/C [26]: 84.2%
viability, T/C [27]: 58.2%
viability, T/C [28]: 38.7%
viability, T/C [29]: 22.8%
viability, T/C [30]: 21.6%
viability, T/C [31]: 87.6%
viability, T/C [32]: 84.5%
viability, T/C [33]: 48.3%
viability, T/C [34]: 40.3%
viability, T/C [35]: 23.7%
viability, T/C [36]: 22.8%

COc1ncnc(C2CC2)c1-c1ncc2cnn(Cc3ccc(-c4nc(C(F)(F)F)cn4C(C)C)cc3)c2n1 + Cc1[nH]c2ccc(F)cc2c1-c1nc2c3cccnc3c3ncccc3c2[nH]1
pIC50 (second compound 0.0316 µM): < 5.00
pIC50 (second compound 0.1 µM): < 5.00
pIC50 (second compound 0.316 µM): < 5.00
pIC50 (second compound 1 µM): < 5.00
pIC50 (second compound 3.16 µM): < 5.00
pIC50 (second compound 10 µM): < 5.00
viability, T/C [1]: 106%
viability, T/C [2]: 98.9%
viability, T/C [3]: 101%
viability, T/C [4]: 100%
viability, T/C [5]: 107%
viability, T/C [6]: 100%
viability, T/C [7]: 120%
viability, T/C [8]: 96.1%
viability, T/C [9]: 110%
viability, T/C [10]: 104%
viability, T/C [11]: 111%
viability, T/C [12]: 83.5%
viability, T/C [13]: 105%
viability, T/C [14]: 107%
viability, T/C [15]: 98.7%
viability, T/C [16]: 92%
viability, T/C [17]: 92.9%
viability, T/C [18]: 84.6%
viability, T/C [19]: 129%
viability, T/C [20]: 107%
viability, T/C [21]: 102%
viability, T/C [22]: 94.2%
viability, T/C [23]: 103%
viability, T/C [24]: 112%
viability, T/C [25]: 104%
viability, T/C [26]: 113%
viability, T/C [27]: 108%
viability, T/C [28]: 88.6%
viability, T/C [29]: 99.8%
viability, T/C [30]: 106%
viability, T/C [31]: 91%
viability, T/C [32]: 100%
viability, T/C [33]: 108%
viability, T/C [34]: 114%
viability, T/C [35]: 106%
viability, T/C [36]: 81.8%

CC1COCCN1c1cc(C2(S(C)(=N)=O)CC2)nc(-c2ccnc3[nH]ccc23)n1 (stereo unspecified) + Cc1cnc(CNC(=O)c2c(=O)c3ccc(N4CCCN(C)CC4)nc3n3c2sc2ccccc23)cn1
pIC50 (second compound 0.0316 µM): 5.78
pIC50 (second compound 0.1 µM): 5.61
pIC50 (second compound 0.316 µM): 5.77
pIC50 (second compound 1 µM): 6.28
pIC50 (second compound 3.16 µM): 6.29
pIC50 (second compound 10 µM): > 7.50
viability, T/C [1]: 93%
viability, T/C [2]: 89.9%
viability, T/C [3]: 76.7%
viability, T/C [4]: 61.8%
viability, T/C [5]: 36%
viability, T/C [6]: 22%
viability, T/C [7]: 80.8%
viability, T/C [8]: 95.6%
viability, T/C [9]: 78.9%
viability, T/C [10]: 79.4%
viability, T/C [11]: 42.2%
viability, T/C [12]: 18.7%
viability, T/C [13]: 80.6%
viability, T/C [14]: 97.1%
viability, T/C [15]: 96.7%
viability, T/C [16]: 69.8%
viability, T/C [17]: 25.7%
viability, T/C [18]: 15.6%
viability, T/C [19]: 71.9%
viability, T/C [20]: 83.1%
viability, T/C [21]: 48.7%
viability, T/C [22]: 44.1%
viability, T/C [23]: 24.4%
viability, T/C [24]: 17.1%
viability, T/C [25]: 76.3%
viability, T/C [26]: 72.3%
viability, T/C [27]: 63.7%
viability, T/C [28]: 31.9%
viability, T/C [29]: 22.8%
viability, T/C [30]: 19.1%
viability, T/C [31]: 0.39%
viability, T/C [32]: 19.2%
viability, T/C [33]: 44.1%
viability, T/C [34]: 26.4%
viability, T/C [35]: 0.34%
viability, T/C [36]: 0.27%
